# Where two headings read alike, the source gives them in different places.
# Columns and labels:
# [1] = Protocol: The method has historic precedent for accurately predicting in vivo percutaneous absorption kinetics.
# To assure the integrity of each skin section, its permeability to tritiated water was determined before application of the test products.
# [2] = Degradation of compound (II) in neutral ethanol; type: physicochemical; conditions: room temperature, 24 hours
# [3] = Saturation solubility of compound (II) in the gel formulation; type: physicochemical; conditions: acidified nonaqueous gel, refrigerated storage (2-8° C.)
# [4] = Exposure of gels to laboratory light; type: physicochemical; conditions: exposure to laboratory light for up to five days
# [5] = skin dosed with compound (II) formulations
compound,measurement,setting,value
O=C(O)c1ccc(O)cc1 [4-OH Benzoic acid],presence of degradation products in the samples,[1]; [5],present in the majority of the samples
COC(=O)c1ccc(OC(=O)CCCCCCC(=O)NO)cc1 [Compound (II)],degradation of compound (II),[2],approximately 50%
same,formulation's saturation solubility for compound (II),[3],approximately 1.6 % w/w
same,effect of light on assay values for compound (II),[4],did not significantly affect
same,detectable compound (II) found in the epidermis,"[1]; human, 24 h, pH 6",0.3-0.9%
same,detectable compound (II) found in the surface wash,"[1]; human, 24 h, pH 6",20-69%
O=C(O)CCCCCCC(=O)NO [Compound (III)],presence of degradation products in the samples,[1],present in the majority of the samples
COC(=O)c1ccc(O)cc1 [Methylparaben],presence of degradation products in the samples,[1]; [5],present in the majority of the samples

# Reference: patent US10258595B2, “Pharmaceutical formulation for histone deacetylase inhibitors” (TetraLogic Shape UK Ltd, priority 2010, dated 2019)
